Tests used:
Format in all cases: cell-based
RAW264.7 macrophages = settings: mouse, 16 h
Source text: (§1) Murine macrophage-like RAW 264.7 cells and HeLa human epithelial cells were obtained from the American Type Tissue Collection. BMDMs were isolated as previously described. Briefly, marrow was flushed from the femurs of 1- to 4-month-old 129SvEvTac mice (Taconic Laboratories) bred in-house. Mononuclear cells were separated using Histopaque-1083 (Sigma), washed, and directly seeded into assay plates at 1×10^5 cells/ml in complete medium supplemented with 35% conditioned media from 3T3 cells expressing MCSF. Media were refreshed three days later. After 1 week, media were replaced with 100 μL fresh media and cells were infected as described below. All three types of cells were grown in DMEM high glucose (Sigma) supplemented with 10% fetal bovine serum, 2 mM L-glutamine, 1 mM sodium pyruvate, 10 mM HEPES, and 50 μMβ-mercaptoethanol. Cells were maintained in a 5% CO2 humidified atmosphere at 37° C. For screening, frozen aliquots of RAW 264.7 were thawed and allowed to expand for three days prior to seeding; other experiments were performed with cultures between passages four and 20.
SAFIRE—RAW264.7 macrophages (7×103 in 40 μL or 5×104 in 100 μL) were seeded, respectively, in 384- or 96-well black-walled glass-bottomed plates (Brooks Automation). Twenty four hours post-seeding, bacteria in 20 or 50 μL PBS were added to a final concentration of 1×10^7 CFU/mL, conditions yielding infection of approximately 70% of macrophages at 18 hours post-infection with minimal macrophage toxicity. The sifB::gfp bacterial reporter strain was used to minimize green signal from extracellular bacteria. […] At two hours post-infection, 200 or 500 nL compound was added using a pin tool (CyBio) to yield a final concentration of 25 μM. Each assay plate included rifampicin and DMSO controls. In some experiments, media were removed and replaced with fresh media containing 40 μg/mL gentamicin and increasing concentrations of the compounds of the disclosure. At 17.5 hours post-infection, PBS containing MitoTracker Red CMXRos (Life Technologies) was added to a final concentration of 300 nM or 100 nM, for 384- or 96-well, respectively. Thirty minutes later, 16% paraformaldehyde was added to a final concentration of […] and incubated at room temperature for 15 minutes. Wells were washed twice with PBS and stained for 20 minutes with 1 μMDAPI; wells were washed twice and stored in 90% glycerol in PBS until imaging. The Z′-factor of the screening platform was 0.59 and 0.48 in 96-well and 384-well plates, respectively, within published ranges for complicated cell-based screens.
In addition, toxicity was measured according the following procedure: 1) analyzing macrophage cell morphology; and 2) using MATLAB to count cells (cells that lift up and float after treatment are not within the appropriate Z plane to be counted, and thus are considered dead). If 70% of the cells are adherent (as measured by comparing the number of cells before and after treatment), the compound is considered not toxic. Compounds that pass #1 and #2 above are considered to have a toxicity “>50 μM”. […]

[1] = system: S. enterica serovar Typhimurium SL1344 sifB::gfp in RAW264.7 macrophages; assay: SAFIRE assay, intracellular bacterial load in macrophages; settings: Salmonella enterica
Experimental: The following experiments were performed using the SAFIRE assay described in U.S. Publication 2020/0022961, which is incorporated by reference in its entirety for all purposes. SAFIRE (Screen for Anti-infectives using Fluorescence microscopy of IntracellulaR Enterobacteriaceae) uses cell culture as a surrogate to identify compounds that prevent intracellular replication of a model Gram-negative bacterial human pathogen. The method identifies compounds that prevent bacterial growth in broth culture and compounds that decrease the load of Gram-negative bacteria inside of macrophages at concentrations≤10 μM but have no effect on bacterial growth in standard Mueller Hinton broth (MHB) at 100 μM. Thus, SAFIRE enables the discovery of compounds that are effective against Gram-negative bacteria in host cells and in whole animals, whether or not they are antibacterial in broth.
(§2) The wild-type S. enterica serovar Typhimurium strain, SL1344, was initially isolated from the blood of an infected calf. For screening and validation in macrophages, SL1344 sifB::gfp was grown in Luria-Bertani Broth (LB) with 30 μg/ml streptomycin and 30 μg/ml kanamycin to saturation overnight, diluted to an OD of 0.001 and frozen in 100 μL aliquots in 20% glycerol at −80° C. Prior to infection, aliquots were grown in 5 mL cultures of LB with 30 μg/ml streptomycin and 30 μg/ml kanamycin for 18 hours at 37° C. with aeration. Bacterial strains were routinely grown in LB with antibiotics: 30 μg/ml streptomycin, 30 μg/ml kanamycin, 50 μg/ml ampicillin, 10 μg/ml tetracycline, and/or 1.15 μg/ml meropenem. The acrAB::kan and macAB::kan strains were constructed according to known methods. S. enterica subsp. enterica, serovar Typhimurium strain S10801, NR-22067 is a multidrug resistant isolate from a calf with sepsis. This strain and others as indicated were obtained through BEI resources, NIAID, NIH.
as §1
SAFIRE—RAW264.7 macrophages (7×103 in 40 μL or 5×104 in 100 μL) were seeded, respectively, in 384- or 96-well black-walled glass-bottomed plates (Brooks Automation). Twenty four hours post-seeding, bacteria in 20 or 50 μL PBS were added to a final concentration of 1×10^7 CFU/mL, conditions yielding infection of approximately 70% of macrophages at 18 hours post-infection with minimal macrophage toxicity. The sifB::gfp bacterial reporter strain was used to minimize green signal from extracellular bacteria. […] At two hours post-infection, 200 or 500 nL compound was added using a pin tool (CyBio) to yield a final concentration of 25 μM. Each assay plate included rifampicin and DMSO controls. In some experiments, media were removed and replaced with fresh media containing 40 μg/mL gentamicin and increasing concentrations of the compounds of the disclosure. […]

E. Cloacae MB315 = assay: PMB MIC with selected compound in MHB; settings: Enterobacter cloacae, selected compound 50 μg/mL in MHB
Experimental: (§3) MIC for the antibiotic alone (i.e., in the absence of the disclosed compounds) is provided in the first row labeled “None”. […] […] At this concentration (50 μg/mL), the compounds of the disclosure lacked intrinsic antibacterial activity but a significant improvement in efficacy was still observed. Thus, the compounds of the disclosure may be used to potentiate the activity of antibiotics that have lost their efficacy due to efflux.

K. pneumoniae BAA-1705 [2] = assay: Ciprofloxacin MIC with selected compound in MHB; settings: Klebsiella pneumoniae, BAA1705, read-out: Ciprofloxacin MIC, antibiotic alone (row None), MHB
Experimental: as §3

E. cloacae BAA-2341 [3] = assay: Doxycycline MIC with selected compound in MHB; settings: Enterobacter cloacae, BAA2341, antibiotic alone (row None), MHB
Experimental: as §3

[4] = system: S. enterica sp. Enterica S10801; assay: Doxycycline MIC with selected compound in MHB; settings: Salmonella enterica, antibiotic alone (row None), MHB
Experimental: as §2
MIC for the antibiotic alone (i.e., in the absence of the disclosed compounds) is provided in the first row labeled “None”. […] At this concentration (50 μg/mL), the compounds of the disclosure lacked intrinsic antibacterial activity but a significant improvement in efficacy was still observed. […]

E. coli BAA-2340 [5] = assay: Doxycycline MIC with selected compound in MHB; settings: Escherichia coli, BAA2340, antibiotic alone (row None), MHB
Source text: (§4) MIC for the antibiotic alone (i.e., in the absence of the disclosed compounds) is provided in the first row labeled “None”. […] […] […] Thus, the compounds of the disclosure may be used to potentiate the activity of antibiotics that have lost their efficacy due to efflux.

K. pneumoniae BAA-2342 [6] = assay: Doxycycline MIC with selected compound in MHB; settings: Klebsiella pneumoniae, BAA2342, antibiotic alone (row None), MHB
Source text: as §4

K. pneumoniae BAA-1705 [7] = assay: Doxycycline MIC with selected compound in MHB; settings: Klebsiella pneumoniae, BAA1705, antibiotic alone (row None), MHB
Source text: as §4

A. baumannii MB309 = assay: Chloramphenicol MIC with selected compound in MHB; settings: Acinetobacter baumannii, antibiotic alone (row None), MHB
Source text: as §4

A. baumannii MB306 = assay: Chloramphenicol MIC with selected compound in MHB; settings: Acinetobacter baumannii, antibiotic alone (row None), MHB
Source text: as §4

K. pneumoniae BAA-2342 [8] = assay: Chloramphenicol MIC with selected compound in MHB; settings: Klebsiella pneumoniae, BAA2342, antibiotic alone (row None), MHB
Source text: as §4

E. cloacae BAA-2341 [9] = assay: Chloramphenicol MIC with selected compound in MHB; settings: Enterobacter cloacae, BAA2341, antibiotic alone (row None), MHB
Source text: as §4

[10] = system: P. aeruginosa Focus MB0477; assay: Chloramphenicol MIC with selected compound in MHB; settings: Pseudomonas aeruginosa, FOCUSMB0477, antibiotic alone (row None), MHB
Experimental: as §3

E. coli BAA-2340 [11] = assay: Chloramphenicol MIC with selected compound in MHB; settings: Escherichia coli, BAA2340, antibiotic alone (row None), MHB
Experimental: as §3

| Structure (SMILES) | Toxicity (RAW264.7 macrophages) | IC50 [1] [µM] | MIC (E. Cloacae MB315) [µg/mL] | further results |
| --- | --- | --- | --- | --- |
| N[C@H]1CCN(C[C@H](O)COc2ccc(Cl)c(Cl)c2)C1 [Compound 14] | >50 µM | > 1 | – | – |
| NC1CCN(C[C@@H](O)COc2ccc(Cl)c(Cl)c2)C1 (some centres unmarked) [Compound 3] | >50 µM | < 1 | 32 | – |
| N[C@H]1CCN(C[C@@H](O)COc2ccc(Cl)c(Cl)c2)C1 [Compound 16] | >50 µM | < 1 | 32 | – |
| N[C@@H]1CCN(CC(O)COc2ccc(Cl)c(Cl)c2)C1 (some centres unmarked) [Compound 9] | >50 µM | < 1 | – | – |
| NC1CCN(CC(O)COc2cccc(C(F)(F)F)c2)CC1 (centres unmarked) [Compound 12] | >50 µM | < 1 | – | – |
| CN(CCCCN)CC(O)COc1cc(Cl)cc(Cl)c1 (centres unmarked) [Compound 19] | <50 but >25 μM | < 1 | 32 | – |
| N[C@@H]1CCN(C[C@H](O)COc2ccc(Cl)c(Cl)c2)C1 [Compound 13] | >50 µM | < 1 | – | – |
| NC1CCN(CC(O)COc2ccc(Cl)cc2)CC1 (centres unmarked) [Compound 6] | >50 µM | < 1 | – | – |
| O=C(O)c1cn(C2CC2)c2cc(N3CCNCC3)c(F)cc2c1=O [Ciprofloxacin, ciprofloxacin] | – | – | – | MIC (K. pneumoniae BAA-1705 [2]): > 64 µg/mL |
| NCC1CCN(CC(O)COc2cc(Cl)cc(Cl)c2)C1 (centres unmarked) [Compound 10] | <50 but >25 μM | < 1 | 32 | – |
| NC1CCN(CC(O)COc2ccc(Cl)c(Cl)c2)C1 (centres unmarked) [Compound 1] | >50 µM | < 1 | 32 | – |
| C[C@H]1c2cccc(O)c2C(=O)C2=C(O)[C@]3(O)C(=O)C(C(N)=O)=C(O)[C@@H](N(C)C)[C@@H]3[C@@H](O)[C@@H]21 [Doxycycline, doxycycline] | – | – | – | MIC (E. cloacae BAA-2341 [3]): 8 µg/mL; MIC [4]: 32 µg/mL; MIC (E. coli BAA-2340 [5]): 8 µg/mL; MIC (K. pneumoniae BAA-2342 [6]): 8 µg/mL; MIC (K. pneumoniae BAA-1705 [7]): 4 µg/mL |
| COCCCN(C)C1CCN(CC(O)COc2ccc(Cl)c(Cl)c2)CC1 (centres unmarked) [Compound 11] | >50 µM | < 1 | – | – |
| OC(COc1ccc(Cl)c(Cl)c1)CN1CCC(n2ccnc2)CC1 (centres unmarked) [Compound 5] | >50 µM | < 1 | – | – |
| OC(CN[C@H]1[C@@H]2CNC[C@@H]21)COc1cc(Cl)cc(Cl)c1 (some centres unmarked) [Compound 18] | >50 µM | < 1 | 1 | – |
| N[C@@H]1CCN(C[C@@H](O)COc2ccc(Cl)c(Cl)c2)C1 [Compound 15] | >50 µM | < 1 | – | – |
| NC1CCN(CC(O)COc2ccc(Cl)cc2Cl)CC1 (centres unmarked) [Compound 7] | <50 but >25 μM | < 1 | 32 | – |
| NC1CCN(C[C@H](O)COc2ccc(Cl)c(Cl)c2)C1 (some centres unmarked) [Compound 2] | >50 µM | < 1 | – | – |
| NC1CCN(CC(O)COc2ccc(Cl)c(Cl)c2)CC1 (centres unmarked) [Compound 4] | <25 µM | < 1 | 16 | – |
| NC1CCN(CC(O)COc2c(Cl)cccc2Cl)CC1 (centres unmarked) [Compound 8] | >50 µM | < 1 | – | – |
| O=C(N[C@H](CO)[C@H](O)c1ccc([N+](=O)[O-])cc1)C(Cl)Cl [Chloramphenicol, chloramphenicol] | – | – | – | MIC (A. baumannii MB309): > 64 µg/mL; MIC (A. baumannii MB306): > 64 µg/mL; MIC (K. pneumoniae BAA-2342 [8]): 64 µg/mL; MIC (E. cloacae BAA-2341 [9]): 16 µg/mL; MIC [10]: 64 µg/mL; MIC (E. coli BAA-2340 [11]): 64 µg/mL |
| CC1(N)CCN(CC(O)COc2cc(Cl)cc(Cl)c2)CC1 (centres unmarked) [Compound 17] | <25 µM | < 1 | 16 | – |

Source: patent publication US20240350454A1, “BACTERIAL EFFLUX PUMP INHIBITORS AND METHODS OF USE” (THE REGENTS OF THE UNIVERSITY OF COLORADO, priority 2021, published 2024)
